The values that follow come from BindingDB's records for PubMed 11160644 (Merck Frosst Centre For Therapeutic Research, 2001).

This assay has as its target T1, Solute carrier organic anion transporter family member 1B1 (Homo sapiens, UniProt Q9Y6L6).
T1 sequence (Q9Y6L6 whole entry): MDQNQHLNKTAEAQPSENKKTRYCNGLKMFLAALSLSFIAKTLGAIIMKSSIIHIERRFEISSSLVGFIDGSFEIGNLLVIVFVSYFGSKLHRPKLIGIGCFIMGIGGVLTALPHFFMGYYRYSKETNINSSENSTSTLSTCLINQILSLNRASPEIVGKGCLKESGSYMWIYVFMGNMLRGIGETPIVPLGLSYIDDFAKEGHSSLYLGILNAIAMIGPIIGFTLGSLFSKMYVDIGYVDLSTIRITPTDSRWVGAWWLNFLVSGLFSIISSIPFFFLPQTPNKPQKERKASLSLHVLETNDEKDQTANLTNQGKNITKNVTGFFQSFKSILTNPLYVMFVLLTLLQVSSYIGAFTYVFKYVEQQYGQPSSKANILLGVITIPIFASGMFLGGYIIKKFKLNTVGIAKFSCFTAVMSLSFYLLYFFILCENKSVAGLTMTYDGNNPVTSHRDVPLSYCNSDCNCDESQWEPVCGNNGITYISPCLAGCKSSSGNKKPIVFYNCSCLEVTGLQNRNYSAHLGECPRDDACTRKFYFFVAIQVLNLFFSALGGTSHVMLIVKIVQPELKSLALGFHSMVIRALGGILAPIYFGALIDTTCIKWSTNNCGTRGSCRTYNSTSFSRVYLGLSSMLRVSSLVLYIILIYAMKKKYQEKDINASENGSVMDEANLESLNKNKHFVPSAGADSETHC

Where only a bound is given, the exact number is not on record here.

Compound `Cc1ccc(-c2ncc(Cl)cc2-c2ccc(S(C)(=O)=O)cc2)cn1` showed a Ki of more than 10000 nM. `COc1ccc2c(c1)c(CC(=O)O)c(C)n2C(=O)c1ccc(Cl)cc1` [indometacin] gave a Ki of 2 nM.

Usually Ki stands for a dissociation constant, usually derived from enzyme kinetics or from competition with a known ligand. Read a high Ki as weaker binding.
